Test results reported in US20150260723A1, “COMPANION DIAGNOSTICS FOR TEC FAMILY KINASE INHIBITOR THERAPY” (PHARMACYCLICS, INC., priority 2012, published 2015).
“And” between values parts separate entries of the source, which are not always exact repeats. Identical values can stand only once.

Legend:
[1] = target: T1, JAK3 (Homo sapiens, UniProt P52333); assay: standard kinase inhibition assay performed by Nanosyn; format: biochemical; details: [Enzyme] 2 nM, [ATP] 2 μM, inc time 3 hr
T1 construct: purchased INVITROGEN PV3855
T1 sequence (P52333 781-1124 limits assumed): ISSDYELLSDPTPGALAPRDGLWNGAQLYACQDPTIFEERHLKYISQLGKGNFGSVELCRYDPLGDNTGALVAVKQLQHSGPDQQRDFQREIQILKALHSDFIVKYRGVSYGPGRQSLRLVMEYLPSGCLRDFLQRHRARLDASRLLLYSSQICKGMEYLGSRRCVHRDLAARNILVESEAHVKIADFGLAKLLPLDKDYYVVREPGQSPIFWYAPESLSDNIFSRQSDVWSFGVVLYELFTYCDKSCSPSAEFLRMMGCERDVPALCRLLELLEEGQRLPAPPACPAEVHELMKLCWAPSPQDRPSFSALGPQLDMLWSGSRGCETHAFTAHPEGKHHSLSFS
Method: (§1) The following kinases were assayed according the table 4 below:
(§2) Compounds were tested in singlicates using 12 pt (3×-dilutions) dose response format with top concentration of 10 mM or 1 mM.

[2] = target: T2, BLK (Homo sapiens, UniProt P51451); assay: as above; format: biochemical; details: [Enzyme] 0.4 nM, [ATP] 20 μM, inc time 1 hr
T2 construct: purchased BPS 40401
T2 sequence (P51451 whole entry): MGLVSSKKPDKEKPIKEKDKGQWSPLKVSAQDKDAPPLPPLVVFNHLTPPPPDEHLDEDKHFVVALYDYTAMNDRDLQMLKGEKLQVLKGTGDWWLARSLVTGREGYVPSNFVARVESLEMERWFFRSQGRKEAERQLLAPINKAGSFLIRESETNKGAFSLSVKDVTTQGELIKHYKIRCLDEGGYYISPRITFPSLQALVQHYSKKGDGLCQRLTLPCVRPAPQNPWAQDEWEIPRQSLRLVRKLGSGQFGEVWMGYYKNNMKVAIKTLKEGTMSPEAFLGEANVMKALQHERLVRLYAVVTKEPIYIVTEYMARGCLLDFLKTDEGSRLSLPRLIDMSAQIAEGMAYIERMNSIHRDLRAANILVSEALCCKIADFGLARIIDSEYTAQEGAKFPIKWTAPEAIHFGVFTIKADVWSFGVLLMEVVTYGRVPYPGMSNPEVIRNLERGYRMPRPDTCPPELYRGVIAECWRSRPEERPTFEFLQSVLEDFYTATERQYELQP
Method: as §1, §2

[3] = target: T3, LCK (Homo sapiens, UniProt P06239); assay: as above; format: biochemical; details: [Enzyme] 0.4 nM, [ATP] 50 μM, inc time 1 hr
T3 construct: purchased INVITROGEN P3043
T3 sequence (P06239 whole entry): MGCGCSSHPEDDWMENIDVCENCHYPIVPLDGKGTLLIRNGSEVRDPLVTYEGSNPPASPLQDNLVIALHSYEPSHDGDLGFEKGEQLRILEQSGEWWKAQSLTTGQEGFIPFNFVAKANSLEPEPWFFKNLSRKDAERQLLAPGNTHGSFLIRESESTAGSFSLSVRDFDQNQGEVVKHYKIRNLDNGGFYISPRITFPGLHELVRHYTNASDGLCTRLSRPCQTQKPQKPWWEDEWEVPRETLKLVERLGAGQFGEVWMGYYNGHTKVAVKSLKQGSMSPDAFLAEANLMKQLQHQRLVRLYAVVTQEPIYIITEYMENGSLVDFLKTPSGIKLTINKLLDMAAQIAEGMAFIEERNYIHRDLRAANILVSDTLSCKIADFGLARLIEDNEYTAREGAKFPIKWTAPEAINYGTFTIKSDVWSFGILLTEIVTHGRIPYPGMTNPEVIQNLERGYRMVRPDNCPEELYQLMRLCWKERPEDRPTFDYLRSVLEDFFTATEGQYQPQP
Method: as §1, §2

[4] = target: T4, BTK (Homo sapiens, UniProt Q06187); assay: as above; format: biochemical; details: [Enzyme] 0.95 nM, [ATP] 20 μM, inc time 1 hr
T4 sequence (Q06187 whole entry): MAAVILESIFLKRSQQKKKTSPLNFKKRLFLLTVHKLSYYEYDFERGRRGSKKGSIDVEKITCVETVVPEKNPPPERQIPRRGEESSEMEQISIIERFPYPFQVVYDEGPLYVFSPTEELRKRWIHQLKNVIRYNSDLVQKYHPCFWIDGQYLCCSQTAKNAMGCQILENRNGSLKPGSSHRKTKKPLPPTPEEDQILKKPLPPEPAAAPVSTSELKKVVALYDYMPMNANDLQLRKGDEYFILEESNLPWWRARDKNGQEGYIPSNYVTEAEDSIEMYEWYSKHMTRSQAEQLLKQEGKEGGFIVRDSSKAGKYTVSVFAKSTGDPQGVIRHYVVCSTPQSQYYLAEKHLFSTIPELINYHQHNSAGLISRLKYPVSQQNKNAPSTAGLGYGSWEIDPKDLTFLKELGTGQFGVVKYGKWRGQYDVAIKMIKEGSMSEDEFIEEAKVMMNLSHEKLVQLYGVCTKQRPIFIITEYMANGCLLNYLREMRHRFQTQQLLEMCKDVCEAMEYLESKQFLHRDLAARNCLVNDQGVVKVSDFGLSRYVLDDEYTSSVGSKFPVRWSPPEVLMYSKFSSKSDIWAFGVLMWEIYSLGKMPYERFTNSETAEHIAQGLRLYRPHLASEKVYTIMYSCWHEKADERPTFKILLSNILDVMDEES
Method: as §1, §2

[5] = target: T5, ITK (Homo sapiens, UniProt Q08881); assay: as above; format: biochemical; details: [Enzyme] 1 nM, [ATP] 50 μM, inc time 3 hr
T5 construct: endogenous in cells; host or cells: Jurkat cell lysate
T5 sequence (Q08881 1-620): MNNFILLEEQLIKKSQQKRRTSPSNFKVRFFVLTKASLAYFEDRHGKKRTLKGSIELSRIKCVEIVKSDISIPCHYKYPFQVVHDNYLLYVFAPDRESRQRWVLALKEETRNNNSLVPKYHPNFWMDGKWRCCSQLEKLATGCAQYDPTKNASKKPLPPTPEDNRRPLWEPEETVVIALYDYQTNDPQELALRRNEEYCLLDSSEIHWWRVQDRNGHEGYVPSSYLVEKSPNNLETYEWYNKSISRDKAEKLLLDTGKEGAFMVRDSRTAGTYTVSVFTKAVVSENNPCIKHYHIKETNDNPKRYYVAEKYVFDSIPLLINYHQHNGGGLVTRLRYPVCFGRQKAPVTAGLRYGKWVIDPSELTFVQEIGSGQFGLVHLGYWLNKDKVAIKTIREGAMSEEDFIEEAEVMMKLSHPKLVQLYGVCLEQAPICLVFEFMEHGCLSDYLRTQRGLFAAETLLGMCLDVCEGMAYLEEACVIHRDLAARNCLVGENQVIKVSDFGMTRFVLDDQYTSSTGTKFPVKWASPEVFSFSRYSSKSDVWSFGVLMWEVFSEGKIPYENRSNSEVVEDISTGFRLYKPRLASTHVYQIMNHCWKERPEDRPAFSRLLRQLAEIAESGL
Method: as §1, §2

[6] = target: T6, TEC (Homo sapiens, UniProt P42680); assay: as above; format: biochemical; details: [Enzyme] 4.6 nM, [ATP] 12 μM, inc time 1 hr
T6 construct: purchased Millipore 14-801
T6 sequence (P42680 1-631): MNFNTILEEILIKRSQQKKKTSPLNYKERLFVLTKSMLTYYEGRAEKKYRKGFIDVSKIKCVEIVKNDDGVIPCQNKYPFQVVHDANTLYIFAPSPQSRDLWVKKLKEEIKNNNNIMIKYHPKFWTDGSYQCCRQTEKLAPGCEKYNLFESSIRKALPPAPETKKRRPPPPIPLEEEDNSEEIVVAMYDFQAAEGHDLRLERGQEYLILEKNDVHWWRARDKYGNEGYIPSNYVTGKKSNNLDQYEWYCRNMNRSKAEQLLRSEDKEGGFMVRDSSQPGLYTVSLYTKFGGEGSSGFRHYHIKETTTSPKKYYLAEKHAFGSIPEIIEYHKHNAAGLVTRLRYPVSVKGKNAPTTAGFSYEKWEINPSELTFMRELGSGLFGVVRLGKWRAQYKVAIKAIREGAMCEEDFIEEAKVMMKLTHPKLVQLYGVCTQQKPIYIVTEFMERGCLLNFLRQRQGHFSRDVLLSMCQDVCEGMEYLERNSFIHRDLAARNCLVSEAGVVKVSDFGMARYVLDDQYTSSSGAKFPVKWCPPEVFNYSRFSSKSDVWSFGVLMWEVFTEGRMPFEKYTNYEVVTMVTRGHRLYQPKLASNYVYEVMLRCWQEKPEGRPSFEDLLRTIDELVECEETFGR
Method: as §1, §2

[7] = target: T7, BMX (Homo sapiens, UniProt P51813); assay: as above; format: biochemical; details: [Enzyme] 1.82 nM, [ATP] 75 μM, inc time 1 hr
T7 construct: purchased BPS 40402
T7 sequence (P51813 1-675): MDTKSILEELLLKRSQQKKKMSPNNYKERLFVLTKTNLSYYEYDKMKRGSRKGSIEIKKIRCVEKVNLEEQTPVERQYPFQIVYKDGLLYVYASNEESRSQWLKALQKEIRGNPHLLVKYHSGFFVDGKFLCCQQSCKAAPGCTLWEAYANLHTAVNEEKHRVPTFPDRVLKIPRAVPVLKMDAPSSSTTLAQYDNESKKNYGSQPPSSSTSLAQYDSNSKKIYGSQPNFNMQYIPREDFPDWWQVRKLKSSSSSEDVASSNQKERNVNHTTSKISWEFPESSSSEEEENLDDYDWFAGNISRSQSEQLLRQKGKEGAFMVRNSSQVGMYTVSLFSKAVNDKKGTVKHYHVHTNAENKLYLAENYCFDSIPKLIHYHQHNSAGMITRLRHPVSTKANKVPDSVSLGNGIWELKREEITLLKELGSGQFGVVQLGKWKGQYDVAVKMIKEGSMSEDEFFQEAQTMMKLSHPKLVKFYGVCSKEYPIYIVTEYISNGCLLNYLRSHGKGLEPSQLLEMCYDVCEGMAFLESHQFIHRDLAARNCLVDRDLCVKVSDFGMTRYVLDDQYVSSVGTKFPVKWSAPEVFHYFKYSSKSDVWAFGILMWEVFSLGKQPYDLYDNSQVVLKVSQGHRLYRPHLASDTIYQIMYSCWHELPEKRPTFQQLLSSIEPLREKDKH
Method: as §1, §2

[8] = target: T8, SRC (Homo sapiens, UniProt P12931); assay: as above; format: biochemical; details: [Enzyme] 3 nM, [ATP] 25 μM, inc time 1 hr
T8 construct: purchased INVITROGEN P3044
T8 sequence (P12931 whole entry): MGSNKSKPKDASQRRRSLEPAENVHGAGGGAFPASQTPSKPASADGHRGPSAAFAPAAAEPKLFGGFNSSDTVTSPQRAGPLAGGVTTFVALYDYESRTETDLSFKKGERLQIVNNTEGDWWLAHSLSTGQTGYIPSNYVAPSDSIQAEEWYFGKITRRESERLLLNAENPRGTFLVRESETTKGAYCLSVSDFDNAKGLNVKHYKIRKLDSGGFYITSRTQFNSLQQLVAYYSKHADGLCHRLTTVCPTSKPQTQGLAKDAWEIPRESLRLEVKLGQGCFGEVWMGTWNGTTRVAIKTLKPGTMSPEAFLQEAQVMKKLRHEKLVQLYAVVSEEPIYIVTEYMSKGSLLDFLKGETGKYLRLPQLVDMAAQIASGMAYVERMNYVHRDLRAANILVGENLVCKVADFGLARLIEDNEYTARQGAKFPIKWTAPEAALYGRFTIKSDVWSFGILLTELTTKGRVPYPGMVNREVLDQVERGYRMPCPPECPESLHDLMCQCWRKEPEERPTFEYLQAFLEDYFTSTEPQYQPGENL
Method: as §1, §2

[9] = target: T4, BTK; assay: Comparison of biotinylated probes, streptavidin coated plate BTK occupancy assay; format: binding; set-up: Positive Control lysates from BTK expressing cell line (DOHH2); endogenous in cells; host or cells: DOHH2 cell lysate; details: DOHH2 lysate, high and low probe concentrations
Method: Selected biotinylated probes were tested for use in target occupancy assays using either the anti-protein antibody coated plate or streptavidin coated plate assay formats. The following probes were tested:
Stock solutions (5 mM and 10 mM) of the probes were prepared as follows. […] For the assays 50× probe was prepared fresh the day of the assay: 1 μl of 5 mM probe to […] PBS.
1) Dilute lysate to desired concentration with PBS to final volume of 500 μl
2) Add Biotinylated probe (final concentration 2.5 μM) to lysate, 37 C for 1 hr
3) Block streptavidin plate w/ 1% BSA, RT, 1 hr, wash w/ PBST 3×
4) Stop reaction by transfer samples onto ice for 10 min, then bring back to RT
5) Add 100 ul treated lysate (in triplicate) to streptavidin plate, RT, 2 hr w/ rocking
6) Wash with 200 μl PBST, 5×
7) Add 100 μl 2nd Ab-HRP, incubate at RT for 1 hr
8) Wash with 200 μl PBST, 3×
9) Add 100 μl TMB, incubate at RT for 10 min
10) Add 50 μl stop solution

Which results are given for `CN(C/C=C/C(=O)N1CCC[C@@H](n2nc(-c3ccc(Oc4ccccc4)cc3)c3c(N)ncnc32)C1)CCCCNC(=O)CCCC(=O)NCCCOCCOCCOCCCNC(=O)CCCC[C@@H]1SC[C@@H]2NC(=O)N[C@@H]21` [Compound I-5]?
IC50 [1]: 4870 nM and 5340 nM; IC50 [2]: 4.27 nM and 3.66 nM; IC50 [3]: 6.92 nM and 5.99 nM; IC50 [4]: 1.02 nM and 0.755 nM; IC50 [5]: 198 nM and 187 nM; IC50 [6]: 2.29 nM and 1.71 nM; IC50 [7]: 5.57 nM and 4.42 nM; IC50 [8]: 36.3 nM and 33.8 nM; signal for binding to BTK out of the probes tested [9]: highest signal
